Laboratory results taken from US8802723B2, “Metabolic syndrome-improving agent and medicine, supplement, functional food and food additive containing the same” (ARKRAY, Inc., priority 2005, dated 2014).

Columns and labels:
HepG2 cells = assay: counting of the number of living cells (CellTiter 96 Aqueous One Solution); assay type: cell-based, human; conditions: HepG2, 30 hours, control (DMSO) = 100
Experimental: HepG2 was cultured to 80% to 90% confluence in a 100 mm/Collagen-Coated Dish (trade name, manufactured by Iwaki Glass Works, Co.). The medium was removed from the above-noted dish with a pipette and then HepG2 was washed with 2 mL of 1×PBS. Then, 2 mL of trypsin-EDTA was added, the above-noted dish was rotated slowly so that the trypsin-EDTA spread over the entire cells, this trypsin-EDTA was removed with a pipette, and the dish was allowed to stand still for 15 minutes in a CO2 incubator (37° C., 5%). To this dish, 12 mL of a growth medium was added, followed by mixing by pipetting, and 1 mL of this mixture solution was dispensed in each well of Collagen-Coated Microplates 12Well/Flat Bottom (trade name, manufactured by Iwaki Glass Works, Co.). After the cells were checked using a microscope, the wells were cultured in a CO2 incubator (37° C., 5%) for one to two days. After checking that 80% to 90% confluence was achieved using the microscope, a medium replacement was carried out by removing the medium and adding 800 μL of a medium containing aurapten. […] Using this collected medium, the number of living cells were counted, and the Western blotting and the ELISA measurement were carried out similarly to the above. From the result of the ELISA, the ratio of the VLDL secretion amount between the measurement group and the non-treated control group (measurement group/control group) was calculated for each sample.
The measurement was made using CellTiter 96 Aqueous One Solution Cell Proliferation Assay (trade name, manufactured by Promega Corporation). […] 100 μL of this mixture solution was dispensed to each of three wells of ELISA PLATE 96 well (trade name, manufactured by Iwaki Glass Works, Co.), and the absorbance at 490 nm was measured. The measurement was made using wallac ARVOsx (trade name, PerkinElmer Life Sciences, PerkinElmer, Inc.), and the mode of measurement was Absorbance (490 nm, 1.0 S). The ratio of the number of living cells between the measurement group and the non-treated control group (measurement group/control group) was calculated for each sample.

[1] = system: VLDL secretion in HepG2 cells; assay: VLDL secretion inhibition experiment in HepG2 cells (apoB100 ELISA); assay type: cell-based, human; conditions: for VLDL secretion ratio (%): HepG2, 30 hours, measurement group/control group, control (DMSO) = 100, average ± standard error
Experimental: FCS, a non-essential amino acid, sodium pyruvate and a glutamine solution were mixed such that the final concentrations of the FCS, the non-essential amino acid, the sodium pyruvate and the glutamine solution respectively were 10%, 1%, 1 mM and 2 mM, and added to an MEM medium (manufactured by SIGMA). They were mixed aseptically on a clean bench. In a 100 mm/Collagen-Coated Dish (trade name, manufactured by Iwaki Glass Works, Co.), the medium of HepG2 cells (human hepatic cells) that had been cultured to 80% to 90% confluence was removed with a pipette and washed with 2 mL of 1×PBS. After adding 2 mL of trypsin-EDTA and rotating the above-noted dish slowly so that trypsin-EDTA spread over the entire cells, this trypsin-EDTA was removed with a pipette. The dish was allowed to stand still for 15 minutes in a CO2 incubator (37° C., 5%), and then 4 mL of a growth medium was added to this dish, followed by mixing by pipetting. Then, 2 mL of this mixture was added to each of two dishes to which 3 mL of a growth medium was added in advance. These dishes were covered with lids and moved crisscross so as to mix the content. The cells were checked using a microscope (manufactured by Olympus Corporation) and cultured in a CO2 incubator (37° C., 5%). Three or four days later, after checking that 80% to 90% confluence was achieved using the microscope, subculture was carried out in a similar manner, followed by cell culture.
First, a VLDL standard solution was prepared. The VLDL standard solution was prepared by diluting 1.169 mg/mL of human VLDL standard (trade name, manufactured by CHEMICON International, Inc.) with a growth medium. The dilution factors were 100, 1000, 10000, 100000 and 1000000.
A sandwich ELISA that recognized human […] in the VLDL as an antigen was used. First, 100 μL of Moab×LDL Apolipoprotein B (ApoB) (manufactured under MONOSAN®) was dispensed in each well of ELISA PLATE, and the plate was sealed with a sterile seal and then allowed to stand still at 4° C. overnight. In the following, all the dispensing mentioned is for a single well. On the next day, 200 μL of Zepto Block (trade name, manufactured by ZeptoMetrix Corporation) was dispensed, and then the above-noted plate was sealed and allowed to stand still for 2 hours at room temperature for blocking. Subsequently, 100 μL of the medium and the VLDL standard solution were dispensed, and then the above-noted plate was sealed and allowed to stand still for 1 hour at room temperature. Washing with 200 μL of PBST and absorption using an aspirator were carried out five times in total. […] 100 μL of 1M phosphoric acid solution was added to the above-noted mixture solution, and the absorbance at 450 nm was measured using wallac ARVOsx (trade name, PerkinElmer Life Sciences, PerkinElmer, Inc.). […]

CC(C)=CCC/C(C)=C/COc1ccc2ccc(=O)oc2c1 [Aurapten, aurapten]
Number of living cells (%) (HepG2 cells; aurapten 10 μM): 100.3% | Number of living cells (%) (HepG2 cells; aurapten 20 μM): 99.9% | Number of living cells (%) (HepG2 cells; aurapten 50 μM): 98.7% | effect on VLDL secretion (in words) ([1]; 10-50 μM, degree of inhibition increased as concentration rose): VLDL secretion was inhibited | VLDL secretion ratio (%) ([1]; aurapten 10 μM): 63.1 ± 5.31% | VLDL secretion ratio (%) ([1]; aurapten 20 μM): 61.6 ± 2.21% | VLDL secretion ratio (%) ([1]; aurapten 50 μM): 45.6 ± 4.04%
